Experimental data from paper PMC12120661, “Synthesis and Biological Evaluation of 4‑(4-Nitrophenyl)‑1H‑1,2,3-triazole Derivatives as Antitrypanosomal Agents” (ACS Omega, 2025).

Tests used:
[1] = system: T. cruzi intracellular amastigotes (Colombian strain) in C2C12 cells; test: Antiamastigote activity, infection index, treatment after infection, C2C12; type: cell-based, Trypanosoma cruzi; details: for selective index C2C12: CC50/IC50, C2C12, treatment after infection; for IC50: Trypanosoma cruzi, infected C2C12, 48 h treatment after infection
Protocol: (§1) Considering the dynamics of T. cruzi infection in humans, characterized by an increase in parasitic load through intracellular replication of amastigote forms in various cell types, we evaluated the action of the compounds in LLC-MK2 (epithelial cells) and C2C12 (myoblasts) using an in vitro infection model.
(§2) The antiamastigote activity was assessed by calculating the infection index, defined as the percentage of infected cells multiplied by the mean number of amastigotes per cell. Noninfected control cells were subjected to identical treatment conditions to evaluate the cytotoxicity of the compounds (CC50). This comprehensive approach allowed for the simultaneous assessment of antiparasitic efficacy and compound-induced cytotoxicity, offering valuable insights into their therapeutic potential.
(§3) In the infection plate each well was added 50 μL of cold methanol for cell fixation. The plate was kept at −20 °C for 1 h. After this period, the wells were blocked with 50 μL of PBS 1X-Saponin 0.1 + 10% rabbit serum for 10 min at room temperature. Following, the wells were washed four times with PBS 1X-Saponin 0.1% and 50 μL of the same solution was added to each well, incubating for 20 min at room temperature. Subsequently, 50 μL of PBS 1X-Saponin 0.1% + anti-T. cruzi antibody (from serum of infected patients) at a 1:10 dilution was added, and the plate was incubated for 1 h at room temperature. The wells were then washed four times with PBS 1X-Saponin 0.1%, and 50 μL of PBS 1X-Saponin 0.1% + antihuman IgG-FITC at a 1:200 dilution was added. The plate was incubated wrapped in aluminum foil for 30 min. After incubation, the plate was washed four times with PBS 1X-Saponin 0.1%, and 50 μL of PBS 1X was added to all wells after the final wash. For nuclear staining, the plate, already stained with FITC, was washed three times with PBS 1X, and 200 μL of PBS 1X + 1 μL of iodide per well was added. After staining, the wells were washed again, and 100 μL of PBS 1X was added before imaging.
(§4) The plate was analyzed in the EVOS fluorescence microscope for image acquisition and fluorescence identification, in which the anti-IgG-FITC stains parasite′s membrane in green and iodide stains nuclei in red. On each condition of treatment, 200 cells of 3 wells were evaluated as to the number of infected cells and the number of parasites per cell for calculating the index of infection the IC50 were calculated by Nonlinear regression curves (log[inhibitor] vs normalized response). Selective index was calculated by dividing CC50 per IC50.

[2] = system: T. cruzi intracellular amastigotes (Colombian strain) in LLC-MK2 cells; test: Antiamastigote activity, infection index, treatment after infection, LLC-MK2; type: cell-based, Trypanosoma cruzi; details: for selective index MK2: CC50/IC50, LLC-MK2, treatment after infection; for IC50: Trypanosoma cruzi, LLC-MK2, 48 h, infected LLC-MK2, 48 h treatment after infection; for selectivity indices: stated in text across LLC-MK2 and C2C12, treatment after infection
Protocol: as §1, §2, §3, §4

[3] = Cytotoxicity against primary mouse macrophages; type: cell-based; details: mouse, primary mouse macrophages (PMM)
Description: 1 In Vitro Anti- T. cruzi (Trypomastigote) Activity and Cytotoxicity Assessment of Hit 1 Analogs ^a | column: PMM CC50 (μM)

[4] = Preliminary cytotoxicity assay, resazurin; type: cell-based; details: MRC-5SV2 lung fibroblast cells; human MRC-5 cell line, 3 days incubation
Protocol: MRC-5SV2 cell cytotoxicity was assessed following the methodology outlined in earlier literature. Briefly, cells at a concentration of 1.5 × 10^5 cells/mL were cultured with compound dilutions at 37 °C and 5% CO2. Cell growth was compared to untreated-control wells (100% cell growth) and medium-control wells (0% cell growth). After 3 days of incubation, cell viability was fluorometrically assessed following the addition of 50-μL resazurin per well. Fluorescence was measured after 4 h at 37 °C (λex 550 nm, λem 590 nm). The results were expressed as the percentage reduction in cell growth/viability compared to control wells, and an IC50 value was determined.

[5] = system: T. cruzi amastigotes (Colombian strain) in pre-exposed C2C12 cells; test: Antiamastigote activity in pretreated (pre-exposed) C2C12 cells; type: cell-based, Trypanosoma cruzi; details: for selective index C2C12: CC50/IC50, C2C12 treated previously to infection; for IC50: Trypanosoma cruzi, C2C12 treated previously to infection
Protocol: (§5) After 24 h, the culture medium was removed and replaced with fresh medium containing cell-derived trypomastigotes (MOI 20:1, Colombian strain) overnight.
as §3, §4

[6] = Cellular viability (MTT), noninfected LLC-MK2; type: cell-based; details: rhesus monkey, noninfected LLC-MK2 epithelial cells; noninfected LLC-MK2, Table 2 (treatment after infection); read-out: CC50 non infected MK2
Protocol: as §2
(§6) Following 24 h of treatment, 10 μL of 5 mg/mL of MTT (3-(4,5-dimethylthiazol-2-yl)-2,5-diphenyltetrazolium bromide) was added per well, and absorbance was evaluated in the Eon Microplate Spectrophotometer Reader (BioTek) at 570–690 nm. CC50 were calculated by Nonlinear regression curves (log[inhibitor] vs normalized response).

[7] = system: LLC-MK2 cells; test: Cellular viability (MTT), noninfected LLC-MK2; type: cell-based; details: noninfected LLC-MK2, Table 3 (treatment previously to infection); read-out: CC50 non infected MK2
Protocol: as §2, §6

[8] = Solubility observations; details: 2.000 to 0.062 mM, 0.5% DMSO
[9] = system: T. cruzi nitroreductase (TcNTR72); test: T. cruzi nitroreductase activity assay (NADH oxidation); details: 50 μM NADH, 25 °C; for Kobs (12.5 μM): compound 12.5 μM; for Kobs (25 μM): compound 25 μM; for Kobs (50 μM): compound 50 μM; for Kobs (100 μM): compound 100 μM
Protocol: TcNTR72 was expressed, purified, and its activity was tested following previously described protocol. […] This mixture was incubated at room temperature for 5 min. […] All assays were performed in triplicate for each measurement and for each concentration. Benznidazole was used as a control.

[10] = system: T. cruzi amastigotes (Colombian strain) in pre-exposed LLC-MK2 cells; test: Antiamastigote activity in pretreated (pre-exposed) LLC-MK2 cells; type: cell-based, Trypanosoma cruzi; details: for selective index MK2: CC50/IC50, LLC-MK2 treated previously to infection; for IC50: Trypanosoma cruzi, LLC-MK2 treated previously to infection
Protocol: as §5, §3, §4

[11] = system: T. cruzi Tulahuen CL2 β-galactosidase strain; test: Antitrypanosomal screening, anti-T. cruzi (trypomastigote) activity, CPRG photometric method; type: cell-based; details: Trypanosoma cruzi; Tulahuen CL2 β-galactosidase strain on MRC-5SV2; values in parentheses mean ± SEM of two experiments
Protocol: A preliminary assay was conducted to evaluate the analogs’ in vitro cytotoxicity and antitrypanosomatid activity against T. cruzi Tulahuen strain (Table ). […] However, the promising results of analog 16 encouraged us to conduct more in-depth studies on this compound.
Anti-parasitic assays were conducted following established protocols outlined in earlier literature. In brief, for assessing anti-T. cruzi activity, the Tulahuen CL2 β-galactosidase strain (nifurtimox-sensitive) was employed and maintained on MRC-5SV2 (human lung fibroblast). A total of 4 × 10^3 cells were infected with 4 × 10^4 parasites per well. The synthesized analogs were tested at concentrations ranging from 1.56 to 50.00 μM. Parasite burdens were evaluated after the addition of the substrate CPRG (chlorophenol red ß-D-galactopyranoside). The change in color was measured spectrophotometrically at 540 nm after 4 h of incubation at 37°C. In all assays, parasite growth was compared to untreated-infected controls (100% growth) and noninfected controls (0% growth). Results were expressed as the percentage of parasite reduction at different drug concentrations and used to calculate IC50 values from the dose–response curves.

[12] = Cellular viability (MTT), noninfected C2C12; type: cell-based, murine; details: mouse, noninfected C2C12 myoblast cells; noninfected C2C12, Table 2 (treatment after infection); read-out: CC50 non infected C2C12
Protocol: as §2
(§7) The LLC-MK2 (ATCC CCL-7) cell line of epithelial origin, and C2C12 (ATCC CRL-1772) myoblast cells, derived from murine myoblasts, were maintained in Roswell Park Memorial Institute-RPMI 1640 medium supplemented with L-glutamine, 25 mM HEPES (Corning), 10% (v/v) fetal bovine serum (FBS), and gentamicin (1 μL/mL). […] Once the cells reached 80% confluence, were detached using Trypsin-EDTA and prepared in the subsequent experiments.
as §6

[13] = system: C2C12 cells; test: Cellular viability (MTT), noninfected C2C12; type: cell-based, murine; details: noninfected C2C12, Table 3 (treatment previously to infection); read-out: CC50 non infected C2C12
Protocol: as §2, §7, §6

[14] = target: T1, Recombinant trans-sialidase from T. cruzi (TcTS) (Trypanosoma cruzi, UniProt Q26966); test: Continuous fluorimetric TcTS inhibition (MuNANA hydrolysis); type: biochemical
T1 construct: A truncated recombinant TcTs, containing the enzyme’s catalytic N-terminal domain, was used; made in house
Protocol: Although the main reaction catalyzed by TcTS involves the transfer of host sialic acids to β-galactose acceptors found in parasite surface mucins, a residual hydrolase activity is also present and was utilized to screen a small library of TcTS inhibitors.
A truncated recombinant TcTs, containing the enzyme’s catalytic N-terminal domain, was used. The production and purification of TcTs were performed following previously described protocols. The continuous fluorimetric TcTS assay was conducted in 96-well plates containing phosphate buffer solution at pH 7.4 (25 μL), recombinant enzyme solution (25 μL) and inhibitor solution (25 μL). […] The enzyme activity was measured by calculating the slope of the curve for each concentration of the test compound. Pyridoxal phosphate was used as the inhibition control at a concentration of 1 mM. The IC50 value was determined using the log(inhibitor) vs normalized response–variable slope model in GraphPad Prism version 10.0.0 for Windows, GraphPad Software, Boston, Massachusetts (www.graphpad.com).

[15] = system: trypomastigotes forms of T. cruzi Tulahuen strain (LacZ); parameters: method as in de Andrade et al., 2015; details: previous work of the group; ref de Andrade et al., 2015; read-out: IC50 against trypomastigotes forms of T. cruzi Tulahuen strain (LacZ); cited from earlier work
[16] = previous work of the group; cited from earlier work

T1 sequence (Q26966 entry or part of it): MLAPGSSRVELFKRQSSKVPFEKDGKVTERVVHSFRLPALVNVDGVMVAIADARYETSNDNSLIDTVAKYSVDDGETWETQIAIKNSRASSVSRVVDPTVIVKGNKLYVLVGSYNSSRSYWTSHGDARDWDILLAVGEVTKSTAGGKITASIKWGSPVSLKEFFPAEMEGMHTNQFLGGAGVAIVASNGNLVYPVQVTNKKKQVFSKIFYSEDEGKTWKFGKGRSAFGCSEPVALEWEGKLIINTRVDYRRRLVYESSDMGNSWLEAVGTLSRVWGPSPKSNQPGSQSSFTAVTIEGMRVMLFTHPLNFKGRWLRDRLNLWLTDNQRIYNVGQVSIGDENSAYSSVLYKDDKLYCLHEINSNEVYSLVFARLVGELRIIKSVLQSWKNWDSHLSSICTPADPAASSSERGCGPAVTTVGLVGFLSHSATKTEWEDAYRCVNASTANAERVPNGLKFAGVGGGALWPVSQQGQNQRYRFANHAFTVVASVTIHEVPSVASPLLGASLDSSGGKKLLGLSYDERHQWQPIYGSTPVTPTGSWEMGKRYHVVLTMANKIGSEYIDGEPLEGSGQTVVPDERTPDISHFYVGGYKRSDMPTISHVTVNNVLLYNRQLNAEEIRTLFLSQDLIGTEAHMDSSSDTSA

SMILES	selective index C2C12 [1]	IC50 [1] [µM]	selective index MK2 [2]	IC50 [2] [µM]	selectivity indices [2]	selective index C2C12 [5]	IC50 [5] [µM]	CC50 at 24 h [6] [µM]	CC50 [7] [µM]	Kobs (12.5 μM) [9] [s^–1]	Kobs (25 μM) [9] [s^–1]	Kobs (50 μM) [9] [s^–1]	Kobs (100 μM) [9] [s^–1]	selective index MK2 [10]	IC50 [10] [µM]	CC50 at 24 h [12] [µM]	CC50 [13] [µM]	also measured
CC(=O)OC[C@H]1O[C@@H](n2cc(-c3ccc([N+](=O)[O-])cc3)nn2)[C@H](OC(C)=O)[C@@H](OC(C)=O)[C@H]1OC(C)=O [Compound 16, (2R,3S,4S,5R,6R)-2-(Acetoxymethyl)-6-(4-(4-nitrophenyl)-1H-1,2,3-triazol-1-yl)tetrahydro-2H-pyran-3,4,5-triyl Triacetate]	621.1	0.13 ± 0.01	484.3	0.16 ± 0.02	exceeding 400	141.5	0.56 ± 0.09	> 80	> 80	0.02 ± 0.02	0.06 ± 0.01	0.07 ± 0.01	0.07 ± 0.01	124.9	0.6 ± 0.2	> 80	> 80	CC50 [3]: > 50 µM; CC50 at 3 days [4]: > 50 µM; solubility in the TcTS assay medium [8]: low solubility in the medium; IC50 [11]: 6 µM
O=[N+]([O-])c1ccc(-c2cn([C@@H]3O[C@H](CO)[C@H](O)[C@H](O)[C@H]3O)nn2)cc1 [Compound 19, (2R,3R,4S,5R,6R)-2-(Hydroxymethyl)-6-(4-(4-nitrophenyl)-1H-1,2,3-triazol-1-yl)tetrahydro-2H-pyran-3,4,5-triol]	677.4	0.11 ± 0.02	782.8	0.1 ± 0.04	exceeding 400	115.6	0.7 ± 0.3	> 80	> 80	0.03 ± 0.01	0.03 ± 0.01	0.04 ± 0.02	0.04 ± 0.01	39.4	2 ± 0.2	> 80	> 80	IC50 [14]: 1100 ± 100 µM
O=C(Cn1cc(-c2ccc([N+](=O)[O-])cc2)nn1)NCc1ccccc1 [hit 1]																		IC50 [15]: 7 µM; solubility in water [16]: low solubility in water
